Reference: patent publication US5428175A (priority 1993, dated 1995)
Values after ≈ are worked out from the molar mass of the structure shown.

Assays:
[1] = known from the literature; cited from earlier work
[2] = system: Human epidermoid carcinoma (oral) cell KB; assay: Cytocidal activity of HS-1 for KB cells (MTT); assay type: cell-based; details: 72 hours, absorption at 540 nm, read-out: TC50 (the source's name)
Experimental: Human epidermoid carcinoma (oral) cell KB was inoculated into 96-well microplates (4000 cells/200 μl/well) and cultured in DMEM medium (containing 5% FCS) in 5% CO2 at 37° C. for 24 hours. 5 μl of HS-1 solutions in DMSO at various HS-1 concentrations were added to above culture. After the culture incubated for 72 hours, 10 μl of a 2.5 mg/ml MTT solution was added and incubator was continued for a further 4 hours, thus producing formazan. After the addition of 200 μl of DMSO, the absorption at 540 nm was measured using an imunoreader. The cytocidal activity of HS-1 for KB cells was determined from the ratio of the absorption of the compound to the absorption of the control.

[3] = system: Xanthomonas oryzae IFO 331.2; assay: microbe, parasite or virus in culture; assay type: cell-based; details: IFO331, read-out: Inhibition zone
Escherichia coli AB 1157 = assay: Antimicrobial activity, paper disc inhibition zone; assay type: cell-based; details: AB1157, 40 μg/disc, 8 mm paper disc
Experimental: (§1) Antimicrobial activity of HS-1 was examined using eleven kinds of bacteria, fungi, and yeasts using paper discs with a diameter of 8 mm, at a concentration of 40 μg/disc. The results are shown in Table 3, wherein the antimicrobial activity of HS-1 is indicated as the diameter of the inhibition zone.

Bacillus subtilis rec - = assay: Antimicrobial activity, paper disc inhibition zone; assay type: cell-based; details: 40 μg/disc, 8 mm paper disc; Bacillus subtilis rec - (repair activity defective strain)
Experimental: as §1

[4] = system: Botrytis cinerea IFO 5365; assay: Antimicrobial activity, paper disc inhibition zone; assay type: cell-based; details: IFO5365, 40 μg/disc, 8 mm paper disc
Experimental: as §1

Bacillus subtilis rec + = assay: Antimicrobial activity, paper disc inhibition zone; assay type: cell-based; details: 40 μg/disc, 8 mm paper disc; Bacillus subtilis rec + (wild strain)
Experimental: as §1

[5] = system: Mycobacterium phlei IFO 11158; assay: Antimicrobial activity, paper disc inhibition zone; assay type: cell-based; details: Mycolicibacterium phlei, IFO11158, 40 μg/disc, 8 mm paper disc
Experimental: as §1

Escherichia coli BE 1196 = assay: Antimicrobial activity, paper disc inhibition zone; assay type: cell-based; details: BE1196, 40 μg/disc, 8 mm paper disc
Experimental: as §1

[6] = system: Staphylococcus aureus IFO 12732; assay: Antimicrobial activity, paper disc inhibition zone; assay type: cell-based; details: IFO12732, 40 μg/disc, 8 mm paper disc
Experimental: as §1

[7] = system: Schizosaccharomyces pombe IFO 0638; assay: Antimicrobial activity, paper disc inhibition zone; assay type: cell-based; details: IFO0638, 40 μg/disc, 8 mm paper disc
Experimental: as §1

[8] = system: Xanthomonas citri IFO 3781; assay: Antimicrobial activity, paper disc inhibition zone; assay type: cell-based; details: IFO3781, 40 μg/disc, 8 mm paper disc
Experimental: as §1

[9] = system: Pseudomonas aeruginosa N-10 (L-form); assay: Antimicrobial activity, paper disc inhibition zone; assay type: cell-based; details: 40 μg/disc, 8 mm paper disc
Experimental: as §1

Solubility = assay type: physicochemical

SMILES | antimicrobial and antiprotozoal activities [1] | IC50 [2] [µg/mL] | zone of inhibition at 40 µg/disc [3] [mm] | zone of inhibition at 40 µg/disc (Escherichia coli AB 1157) [mm] | zone of inhibition at 40 µg/disc (Bacillus subtilis rec -) [mm] | zone of inhibition at 40 µg/disc [4] [mm] | zone of inhibition at 40 µg/disc (Bacillus subtilis rec +) [mm] | zone of inhibition at 40 µg/disc [5] [mm] | zone of inhibition at 40 µg/disc (Escherichia coli BE 1196) [mm] | zone of inhibition at 40 µg/disc [6] [mm] | zone of inhibition at 40 µg/disc [7] [mm] | zone of inhibition at 40 µg/disc [8] [mm] | zone of inhibition at 40 µg/disc [9] [mm] | Solubility (Solubility; in dimethyl sulfoxide) | Solubility (Solubility; in methanol) | Solubility (Solubility; in water)
O=C1NC(c2c[nH]c3ccc(O)cc23)=C/C1=C1\C(=O)Nc2ccccc21 [violacein] | known to exhibit antimicrobial and antiprotozoal activities |  |  |  |  |  |  |  |  |  |  |  |  |  |  | 
O=C1N=C(c2c[nH]c3ccccc23)C=C1c1c[nH]c2ccccc12 [HS-1] |  | 0.68 (≈ 2.18 µM) | 11.9 | 0 | < 10 | 0 | 0 | 0 | 0 | 0 | 0 | 0 | < 10 | Readily soluble | scarcely soluble | insoluble
